Broadly, the GI50 is the concentration that inhibits growth by half.

Structures are written as SMILES.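 These data come from cells grown in 96-well plates and exposed to compound for 48 hours at five concentrations. At the GI50, growth is halved.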 Activity calls are given as the source filed them. Cut-off read from the data, not from the text of the source: active = GI50 up to about 1.1 µM and inactive = higher. Starred links: 1 amine or outer side, 2 acyl side, 3 side chain; linkers in the order of their positions; H or OH if unused. Positions of bridges follow the written chain, without caps; N, C: chain ends. Non-standard residues stand in square brackets, D forms with d. Residues, ends and D or L forms follow the SMILES beside them. Chains are numbered I, II in the order given. Actinocin(1to9) = Cc1c2oc3c(C)ccc(C(=O)[*:2])c3nc-2c(C(=O)[*:1])c(N)c1=O; NMeV = CN[CH](C(=O)O)C(C)C; Sar = CNCC(=O)O Where only a bound is given, the exact number is not on record here.

The source of these data is ChEMBL document CHEMBL1201862, “PubChem BioAssay data set” (2004).

Common to all, as to test: DTP human tumour cell line panel, 48 h
The subject of experiment [1] is TK-10.
For experiment [2], the system named is HCT-15.
Experiment [3] has as its system UACC-257.
Experiment [4] concerns SNB-75.
Experiment [5] has as its system CAKI-1.
In experiment [6] the test system is NCI-H460.
For experiment [7], the system named is OVCAR-8.
The subject of experiment [8] is OVCAR-5.
The test system of experiment [9] is U-251.
Experiment [10] deals with T47D.
For experiment [11], the system named is SW-620.
In experiment [12] the test system is KM12.
Experiment [13] has as its system COLO 205.
The test system of experiment [14] is LOX IMVI.
Experiment [15] concerns PC-3.
In experiment [16] the test system is IGROV-1.
Experiment [17] relates to ACHN.
The test system of experiment [18] is HOP-62.
Experiment [19] deals with SF-268.

For the molecule `CCOC(=O)/C(=C\c1ccc(N(C)C)cc1)S(=O)(=O)C(F)(F)C(F)(F)C(F)(F)C(F)(F)F`, the GI50 was 13 µM (inactive) in experiment [1]; over 100 µM in experiment [2]; > 100 µM (inactive) in experiment [3]; > 100 µM (inactive) in experiment [4]; > 100 µM (inactive) in [5]; > 100 µM (inactive) in experiment [6]. Besides, the GI50 in [7], in experiment [8], in experiment [9], in experiment [10], in experiment [11] and in experiment [12] was > 100 µM (inactive) throughout. For the same molecule, the GI50 in [13], in experiment [14], in experiment [15], in experiment [16], in experiment [17] and in [18] was > 100 µM (inactive) in each case. The GI50 in experiment [19] is > 100 µM (inactive).

On to `O=C(NCc1ccccc1)c1cc2ccccc2o/c1=N\c1cccc(C(F)(F)F)c1`, for which the GI50 in [1] is 50.4 µM (inactive); in experiment [2] it was 36.9 µM; in experiment [3] it was 29.5 µM (inactive); in experiment [4], 74.8 µM (inactive); in experiment [5], > 100 µM (inactive); in [6], 41.2 µM (inactive). Also, the GI50 in experiment [7] is 56.1 µM (inactive); in [8], > 100 µM (inactive); in experiment [9], 71 µM (inactive); in experiment [10] it was 28.1 µM (inactive); in experiment [11], 43 µM (inactive); in [12], 48.6 µM (inactive). The GI50 in experiment [13] was 29.3 µM (inactive); in [14], 35.6 µM (inactive); in [15] it was 44.3 µM (inactive); in experiment [16] it was 81.3 µM (inactive); in experiment [17], 46.3 µM (inactive); in experiment [18] it was 85.3 µM (inactive). Also, in experiment [19], the GI50 is > 100 µM (inactive).

For the molecule `Cc1cc(C)nc(NS(=O)(=O)c2ccc(NC(=O)c3ccc4nc5ccccc5c(Nc5ccc(S(=O)(=O)N=C(N)N)cc5)c4c3)cc2)n1`, the GI50 in experiment [1] was > 100 µM (inactive); in [2], over 100 µM; in experiment [3], > 100 µM (inactive); in experiment [4] it was > 100 µM (inactive); in experiment [5] it was > 100 µM (inactive); in [6], > 100 µM (inactive). The GI50 in experiment [7], in experiment [8], in [9], in [10], in experiment [11] and in experiment [12] was > 100 µM (inactive) each time. Further, the GI50 in [13], in experiment [14], in experiment [15], in experiment [16], in experiment [17] and in experiment [18] was > 100 µM (inactive) throughout. Moreover, the GI50 in experiment [19] is > 100 µM (inactive).

For the molecule `O=C(OCc1ccccc1)N1c2cc([N+](=O)[O-])ccc2C(=O)N2CCC[C@H]2C1O` (some centres undefined), the GI50 in experiment [1] was > 100 µM (inactive); in experiment [2] it was over 100 µM; in experiment [3] it was > 100 µM (inactive); in [4], > 100 µM (inactive); in experiment [5], > 100 µM (inactive); in experiment [6] it was > 100 µM (inactive). Also, the GI50 in experiment [7], in [8], in experiment [9], in experiment [10], in experiment [11] and in experiment [12] was > 100 µM (inactive) throughout. The GI50 in experiment [13], in experiment [14], in [15], in experiment [16], in experiment [17] and in experiment [18] was > 100 µM (inactive) each time. Also, in experiment [19], the GI50 is > 100 µM (inactive).

`CC1(CCC(=O)OC2CCCCC2)OCCO1`: the GI50 was > 100 µM (inactive) in experiment [1]; over 100 µM in experiment [2]; > 100 µM (inactive) in experiment [3]; > 100 µM (inactive) in [4]; > 100 µM (inactive) in experiment [5]; > 100 µM (inactive) in experiment [6]. Further, the GI50 in experiment [7], in experiment [8], in experiment [9], in experiment [10], in [11] and in experiment [12] was > 100 µM (inactive) throughout. Besides, the GI50 in experiment [13], in experiment [14], in experiment [15], in experiment [16], in experiment [17] and in [18] was > 100 µM (inactive) throughout. In addition, the GI50 in [19] is > 100 µM (inactive).

In the case of `COc1ccc(C(O)CC(O)(C(F)(F)F)C(F)(F)F)cc1` (centres undefined), the GI50 was 44.7 µM (inactive) in experiment [1]; 34.8 µM in experiment [2]; 19.1 µM (inactive) in [3]; 1.7 µM (inactive) in [4]; 15 µM (inactive) in experiment [5]; 27.4 µM (inactive) in experiment [6]. Besides, the GI50 was 23 µM (inactive) in [7]; 27.5 µM (inactive) in experiment [8]; 37.4 µM (inactive) in experiment [9]; 41.8 µM (inactive) in [10]; 33 µM (inactive) in [11]; 51.3 µM (inactive) in experiment [12]. Besides, the GI50 in [13] was 19.1 µM (inactive); in [14], 18.2 µM (inactive); in experiment [15], 11 µM (inactive); in experiment [16] it was 26.8 µM (inactive); in [17], 29.6 µM (inactive); in [18], 26.4 µM (inactive). Besides, the GI50 in experiment [19] is 39.9 µM (inactive).

Take `CCC(C)C1NC(=O)C(NC(=O)c2c3nc4c(C(=O)NC5C(=O)NC(C(C)CC)C(=O)N6CCCC6C(=O)N(C)CC(=O)N(C)C(C(C)C)C(=O)OC5C)ccc(C)c4oc-3c(C)c(=O)c2N)C(C)OC(=O)C(C(C)C)N(C)C(=O)CN(C)C(=O)C2CCCN2C1=O` (centres undefined) (I: TIP[Sar][NMeV] / II: TIP[Sar][NMeV]; ester I:1-I:C, II:1-II:C; linker I:N-II:N via Actinocin(1to9); configuration not given here): the concentration for 50% growth inhibition (GI50) in [1] was 0.0147 µM (active); in [2] it was 0.0172 µM; in experiment [3], < 0.0001 µM (active); in experiment [4], 0.00319 µM (active); in experiment [5], 0.0059 µM (active); in experiment [6], < 0.0001 µM (active). The GI50 in [7] is 0.000262 µM (active); in experiment [8] it was 0.00459 µM (active); in [9] it was < 0.0001 µM (active); in experiment [10] it was 0.00173 µM (active); in experiment [11], 0.000236 µM (active); in experiment [12], 0.00107 µM (active). The GI50 was < 0.0001 µM (active) in experiment [13]; < 0.0001 µM (active) in [14]; 0.000895 µM (active) in experiment [15]; < 0.0001 µM (active) in experiment [16]; 0.00162 µM (active) in experiment [17]; < 0.0001 µM (active) in experiment [18]. Besides, the 50% growth inhibitory concentration (GI50) in [19] is 0.00322 µM (active).

For `O=C(CCC(NC(=O)OCc1ccccc1)C(=O)OCc1ccccc1)Nc1ccc(OCc2ccccc2)cc1` (centres undefined), the GI50 in experiment [1] is > 31.6 µM (inactive); in [2] it was 13.1 µM; in experiment [3], > 31.6 µM (inactive); in [4], > 31.6 µM (inactive); in [5], > 31.6 µM (inactive); in [6], 15.6 µM (inactive). Moreover, the GI50 in experiment [7] was 14.1 µM (inactive); in [8], > 100 µM (inactive); in [9], 17.1 µM (inactive); in experiment [10], 18.8 µM (inactive); in [11], 25.7 µM (inactive); in experiment [12], > 31.6 µM (inactive). Further, the GI50 in [13] is 25.8 µM (inactive); in experiment [14], > 31.6 µM (inactive); in [15] it was 13.2 µM (inactive); in experiment [16], > 31.6 µM (inactive); in experiment [17] it was 29.6 µM (inactive); in [18] it was > 78.7 µM (inactive). In addition, in experiment [19], the GI50 was 26.4 µM (inactive).

On to `CC(CN(C)C)C(C#N)(c1ccccc1)c1ccccc1` (centres undefined), for which the GI50 in [1] is > 100 µM (inactive); in experiment [2], over 100 µM; in [3], > 100 µM (inactive); in experiment [4], > 100 µM (inactive); in experiment [5], > 100 µM (inactive); in [6], > 100 µM (inactive). For the same molecule, the GI50 in experiment [7], in experiment [8], in experiment [9], in experiment [10], in [11] and in experiment [12] was > 100 µM (inactive) each time. The GI50 in experiment [13] is 82.6 µM (inactive); in [14], > 100 µM (inactive); in experiment [15], 47.6 µM (inactive); in experiment [16] it was > 100 µM (inactive); in experiment [17], > 100 µM (inactive); in [18], > 100 µM (inactive). The GI50 in [19] was > 100 µM (inactive).

Turning to `[N-]=[N+]=NC1=C(c2ccccn2)C(=O)c2cccc3cccc1c23`, the GI50 in experiment [1] is 41.7 µM (inactive); in experiment [2] it was 29 µM; in experiment [3], 32.8 µM (inactive); in experiment [4], 29 µM (inactive); in experiment [5], 26.7 µM (inactive); in experiment [6], 12 µM (inactive). Moreover, the GI50 was 79.6 µM (inactive) in [8]; 29.2 µM (inactive) in experiment [9]; > 100 µM (inactive) in experiment [10]; 22.9 µM (inactive) in [11]; 25.4 µM (inactive) in [12]; 76.9 µM (inactive) in [13]. In addition, the GI50 in experiment [14] is 8.65 µM (inactive); in [15], 39.3 µM (inactive); in experiment [16], 14.8 µM (inactive); in experiment [17] it was 15.7 µM (inactive); in [18] it was 19.7 µM (inactive); in [19] it was 12 µM (inactive).
